Results published in US20110046056A1, “APOA-1 PEPTIDE MIMETICS” (priority 2007, published 2011).
Like-named read-outs stand apart in the source and are kept apart here. *1 amine or outer side, *2 acyl side, *3 side chain or, on linkers, in order; H or OH if unused. Where a SMILES comes first, the peptide text is derived from it. Where no end group is shown, it is not given here. [ ]: non-standard residue; d: D form. S6H = (2S)-2-aminooct-7-enoic acid, C=CCCCC[C@H](N[*:1])C(=O)[*:2]; dNle(6-ylidene) = O=C([C@@H](CCCC=[*:3])N[*:1])[*:2]; Gly(oct-7-en-1-yl) = C=CCCCCCC[C@H](N)C(=O)O; dGly(6-heptenyl) = C=CCCCCC[C@@H](N)C(=O)O; Ala(5-hexenyl) = C=CCCCCC[C@H](N)C(=O)O; dNle(6-vinyl) = C=CCCCC[C@@H](N)C(=O)O; X6 = CCCCCCC[C@H](N[*:1])C(=O)[*:2]; Aib = CC(C)(N)C(=O)O

Biological target: T1, ABCA1 cholesterol transporter protein (Mus musculus, UniProt P41233)
T1 construct: endogenous in cells
Assay: ABCA1-dependent cholesterol efflux from RAW mouse macrophage cells (in vitro RCT assay)
Format: cell-based
Source text: Peptides of the present invention were designed based on amphipathic properties and their abilities to solubilize phospholipids and promote cholesterol efflux. The most direct functional measurement of efficacy for the ApoA-1 peptide mimetic is its capacity to improve the efflux of cholesterol from the cell. The RAW and J774 cell lines are reliable mouse macrophage cell lines frequently used in the art for this purpose. […] The RAW cell line is preferred and recited in the description below.
In the present assay, the RAW cells are plated at 1.5×10^5 cells/200 μl/well/48-well plate in DMEM complete medium (with 10% FBS from INVITROGEN and 1% penicillin-streptomycin-glutamine from GIBCO) and ^3H-cholesterol at 5 μCi/ml. After 24 hours incubation in a moist 37° C. atmosphere with 5% CO2, the spent medium is removed, the cells are washed once with serum-free DMEM (0.1% fatty acid free bovine serum albumin replaces the FBS), and fresh serum-free medium (200 μl) is added to each well. After overnight incubation in the serum-free medium to allow the cellular cholesterol pools to equilibrate, the spent medium is removed, and fresh serum-free medium is added with/without CPT-cAMP (150 μM final). Eight-point serial titrations of the peptide/s being tested are added at this time (duplicate titrations in plain medium without cAMP and duplicate titrations in medium containing cAMP).
After 24 hours incubation in the various conditions, the medium is harvested from each well and 50 μl aliquots are counted. The cells are then lysed by adding 500 μl of HEPES/Triton lysis buffer to each well. The lysis is facilitated by freezing and thawing once. After thawing, the lysates are mixed well and 50 μl aliquots are counted.
The percent efflux of each peptide in each medium condition (±cAMP) is calculated by dividing the total counts in the medium by the sum of the total counts in the medium and lysate. The percent efflux seen with plain medium is subtracted from the percent efflux seen with the cAMP-stimulated efflux to yield the reported ABCA1-stimulated values. EC50 values are determined using PRISM software (Table 2).

[1] = read-out: EC50 in the cholesterol efflux assay (RCT in vitro assay)

T1 sequence (P41233 whole entry): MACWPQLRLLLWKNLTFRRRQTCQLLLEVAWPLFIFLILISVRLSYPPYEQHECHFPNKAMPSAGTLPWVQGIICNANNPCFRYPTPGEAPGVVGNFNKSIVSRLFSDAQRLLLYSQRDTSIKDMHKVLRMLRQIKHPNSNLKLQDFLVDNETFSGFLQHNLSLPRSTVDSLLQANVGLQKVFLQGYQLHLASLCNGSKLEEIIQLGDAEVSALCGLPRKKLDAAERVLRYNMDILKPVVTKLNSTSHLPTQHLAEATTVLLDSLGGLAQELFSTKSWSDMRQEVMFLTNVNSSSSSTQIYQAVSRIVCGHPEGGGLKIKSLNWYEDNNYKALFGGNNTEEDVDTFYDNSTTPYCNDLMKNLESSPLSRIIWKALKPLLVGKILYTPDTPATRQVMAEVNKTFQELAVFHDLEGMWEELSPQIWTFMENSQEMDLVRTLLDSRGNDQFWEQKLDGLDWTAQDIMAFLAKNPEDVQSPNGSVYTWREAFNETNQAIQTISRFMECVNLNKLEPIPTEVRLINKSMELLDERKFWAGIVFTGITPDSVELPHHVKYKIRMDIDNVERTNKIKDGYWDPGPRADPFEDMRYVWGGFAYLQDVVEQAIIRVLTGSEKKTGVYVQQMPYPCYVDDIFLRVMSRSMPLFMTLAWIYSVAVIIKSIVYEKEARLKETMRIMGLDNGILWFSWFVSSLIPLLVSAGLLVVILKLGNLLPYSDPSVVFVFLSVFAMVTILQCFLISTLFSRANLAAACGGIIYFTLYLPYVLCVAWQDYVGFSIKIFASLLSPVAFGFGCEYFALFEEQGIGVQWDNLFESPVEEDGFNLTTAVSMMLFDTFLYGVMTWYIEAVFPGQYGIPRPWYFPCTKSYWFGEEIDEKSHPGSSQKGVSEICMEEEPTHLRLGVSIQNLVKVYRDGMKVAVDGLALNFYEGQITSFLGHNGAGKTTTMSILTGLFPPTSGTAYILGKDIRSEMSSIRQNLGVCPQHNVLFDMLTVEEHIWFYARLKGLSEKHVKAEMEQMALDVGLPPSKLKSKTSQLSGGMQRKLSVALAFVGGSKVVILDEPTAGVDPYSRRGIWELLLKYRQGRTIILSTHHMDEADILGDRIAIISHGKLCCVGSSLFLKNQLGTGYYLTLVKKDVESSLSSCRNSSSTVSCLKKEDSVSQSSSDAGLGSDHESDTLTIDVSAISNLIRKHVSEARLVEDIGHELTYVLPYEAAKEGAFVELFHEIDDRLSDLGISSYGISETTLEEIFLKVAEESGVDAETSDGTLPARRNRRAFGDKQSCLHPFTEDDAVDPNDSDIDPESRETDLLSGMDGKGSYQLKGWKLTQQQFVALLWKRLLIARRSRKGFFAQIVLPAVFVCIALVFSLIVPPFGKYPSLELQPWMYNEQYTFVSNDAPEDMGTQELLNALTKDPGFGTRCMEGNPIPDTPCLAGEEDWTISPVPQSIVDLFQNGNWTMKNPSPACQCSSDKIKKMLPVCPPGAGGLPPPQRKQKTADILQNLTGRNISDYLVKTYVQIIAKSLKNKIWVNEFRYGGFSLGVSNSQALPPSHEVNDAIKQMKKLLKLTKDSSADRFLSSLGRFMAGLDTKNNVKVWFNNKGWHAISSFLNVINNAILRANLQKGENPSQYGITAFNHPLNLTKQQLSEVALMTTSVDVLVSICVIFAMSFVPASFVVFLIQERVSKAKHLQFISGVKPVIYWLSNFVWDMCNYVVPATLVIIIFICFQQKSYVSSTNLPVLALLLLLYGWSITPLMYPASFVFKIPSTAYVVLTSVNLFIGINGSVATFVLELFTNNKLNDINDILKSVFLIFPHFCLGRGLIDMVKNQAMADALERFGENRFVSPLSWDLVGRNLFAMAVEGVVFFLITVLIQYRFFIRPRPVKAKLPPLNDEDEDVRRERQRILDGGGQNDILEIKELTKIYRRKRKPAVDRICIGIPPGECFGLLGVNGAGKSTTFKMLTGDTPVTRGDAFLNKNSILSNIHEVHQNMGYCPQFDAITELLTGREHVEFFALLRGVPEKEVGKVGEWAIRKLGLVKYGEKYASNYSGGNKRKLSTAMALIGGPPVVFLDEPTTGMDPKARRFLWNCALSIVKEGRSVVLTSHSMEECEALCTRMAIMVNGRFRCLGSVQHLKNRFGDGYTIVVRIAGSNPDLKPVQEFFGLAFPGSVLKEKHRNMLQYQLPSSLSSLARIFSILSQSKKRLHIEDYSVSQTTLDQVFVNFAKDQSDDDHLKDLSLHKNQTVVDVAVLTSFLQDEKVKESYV

**Q.** How did the “ABCA1-DEPENDENT CHOLESTEROL EFFLUX, % at one concentration” value (AT 150 µM) turn out when “7 (Ac-PVLDEFREKLNE[Aib]LE[Aib]LKQKLK; not fully specified (C-terminus)) [compound 7]” was run?
**A.** 5% AT 150 UM

**Q.** Which EC50 [1] does the source give for CCCCCCC[C@H](NC(=O)[C@H](CCC(=O)O)NC(=O)[C@H](CC(N)=O)NC(=O)[C@H](CC(C)C)NC(=O)[C@H](CCCCN)NC(=O)[C@H](CCC(=O)O)NC(=O)[C@H](CCCNC(=N)N)NC(=O)[C@H](CCCCCCC)NC(=O)[C@H](CCC(=O)O)NC(=O)[C@H](CC(=O)O)NC(=O)[C@H](CC(C)C)NC(=O)[C@@H](NC(=O)[C@@H]1CCCN1C(C)=O)C(C)C)C(=O)N[C@@H](CC(C)C)C(=O)N[C@@H](CCC(=O)O)C(=O)N[C@@H](C)C(=O)N[C@@H](CC(C)C)C(=O)N[C@@H](CCCCN)C(=O)N[C@@H](CCC(N)=O)C(=O)N[C@@H](CCCCN)C(=O)N[C@@H](CC(C)C)C(=O)N[C@@H](CCCCN)C(N)=O [SEQ ID NO 50, PVLDES7H3REKLNES7H3LEALKQKLK] (Ac-PVLDE[X6]REKLNE[X6]LEALKQKLK-NH2; C-terminus assumed) here?
**A.** 300 nM

**Q.** How did the EC50 [1] turn out when CCCCCCCCCCCCC(NC(=O)[C@H](CCC(=O)O)NC(=O)[C@H](CC(N)=O)NC(=O)[C@H](CC(C)C)NC(=O)[C@H](CCCCN)NC(=O)[C@H](CCC(=O)O)NC(=O)[C@H](CCCNC(=N)N)NC(=O)[C@H](Cc1ccccc1)NC(=O)[C@H](CCC(=O)O)NC(=O)[C@H](CC(=O)O)NC(=O)[C@H](CC(C)C)NC(=O)[C@@H](NC(=O)[C@@H]1CCCN1C(C)=O)C(C)C)C(=O)N[C@@H](CC(C)C)C(=O)N[C@@H](CCC(=O)O)C(=O)N[C@@H](C)C(=O)N[C@@H](CC(C)C)C(=O)N[C@@H](CCCCN)C(=O)N[C@@H](CCC(N)=O)C(=O)N[C@@H](CCCCN)C(=O)N[C@@H](CC(C)C)C(=O)N[C@@H](CCCCN)C(N)=O (single isomer, unassigned) [SEQ ID NO 38, PVLDEFREKLNE-(RS)12H3-LEALKQKLK] was run?
**A.** 200 to 400 nM

**Q.** How did the EC50 [1] turn out when C=CCCCC[C@@H](NC(=O)[C@H](CCC(=O)O)NC(=O)[C@H](CC(N)=O)NC(=O)[C@H](CC(C)C)NC(=O)[C@H](CCCCN)NC(=O)[C@H](CCC(=O)O)NC(=O)[C@H](CCCN=C(N)N)NC(=O)[C@H](Cc1ccccc1)NC(=O)[C@H](CCC(=O)O)NC(=O)[C@H](CC(=O)O)NC(=O)[C@H](CC(C)C)NC(=O)[C@@H](NC(=O)[C@@H]1CCCN1C(C)=O)C(C)C)C(=O)N[C@@H](CC(C)C)C(=O)N[C@@H](CCC(=O)O)C(=O)N[C@@H](C)C(=O)N[C@@H](CC(C)C)C(=O)N[C@@H](CCCCN)C(=O)N[C@@H](CCC(N)=O)C(=O)N[C@@H](CCCCN)C(=O)N[C@@H](CC(C)C)C(=O)N[C@@H](CCCCN)C(N)=O [SEQ ID NO 18, PVLDEFREKLNER6HLEALKQKLK] (Ac-PVLDEFREKLNE[dNle(6-vinyl)]LEALKQKLK-NH2) was run?
**A.** 18000 nM

**Q.** For “PVLDEFREKLNEELEALKQR7HLK (Ac-PVLDEFREKLNEELEALKQ[dGly(6-heptenyl)]LK; not fully specified (C-terminus); printed as PVLDEFREKLNEELEALKQR7HLK) [SEQ ID NO 22]”, which “activity in the cholesterol efflux / in vitro RCT assay, in words” value is on record?
**A.** only slightly active

**Q.** “PVLDEFREKLNEELEALKQS6HLK (Ac-PVLDEFREKLNEELEALKQ[S6H]LK; not fully specified (C-terminus); printed as PVLDEFREKLNEELEALKQS6HLK) [SEQ ID NO 25]” was tested. Which “activity in the cholesterol efflux / in vitro RCT assay, in words” value did it give?
**A.** only slightly active

**Q.** For C=CCCC[C@@H](NC(=O)[C@H](CCC(=O)O)NC(=O)[C@H](CC(N)=O)NC(=O)[C@H](CC(C)C)NC(=O)[C@@H](CCCC=C)NC(=O)[C@H](CCC(=O)O)NC(=O)[C@H](CCCNC(=N)N)NC(=O)[C@H](Cc1ccccc1)NC(=O)[C@H](CCC(=O)O)NC(=O)[C@H](CC(=O)O)NC(=O)[C@H](CC(C)C)NC(=O)[C@@H](NC(=O)[C@@H]1CCCN1C(C)=O)C(C)C)C(=O)N[C@@H](CC(C)C)C(=O)N[C@@H](CCC(=O)O)C(=O)N[C@@H](C)C(=O)N[C@@H](CC(C)C)C(=O)N[C@@H](CCCCN)C(=O)N[C@@H](CCC(N)=O)C(=O)N[C@@H](CCCCN)C(=O)N[C@@H](CC(C)C)C(=O)N[C@@H](CCCCN)C(N)=O [compound 9] (Ac-PVLDEFRE[dNle(6-ylidene)]LNE[dNle(6-ylidene)]LEALKQKLK-NH2; C-terminus assumed), which EC50 (read-out: ABCA1-DEPENDENT CHOLESTEROL EFFLUX EC50) is on record?
**A.** 46000 nM

**Q.** For “6 (Ac-PVLDEFREKLNE[Aib]LEALKQKLK; not fully specified (C-terminus)) [compound 6]”, which “ABCA1-DEPENDENT CHOLESTEROL EFFLUX, % at one concentration” value (AT 100 µM / @ 100) is on record?
**A.** 6% AT 100 UM

**Q.** C=CCCCCC[C@@H](NC(=O)[C@H](CCC(=O)O)NC(=O)[C@H](CC(N)=O)NC(=O)[C@H](CC(C)C)NC(=O)[C@H](CCCCN)NC(=O)[C@H](CCC(=O)O)NC(=O)[C@H](CCCN=C(N)N)NC(=O)[C@H](Cc1ccccc1)NC(=O)[C@H](CCC(=O)O)NC(=O)[C@H](CC(=O)O)NC(=O)[C@H](CC(C)C)NC(=O)[C@@H](NC(=O)[C@@H]1CCCN1C(C)=O)C(C)C)C(=O)N[C@@H](CC(C)C)C(=O)N[C@@H](CCC(=O)O)C(=O)N[C@@H](C)C(=O)N[C@@H](CC(C)C)C(=O)N[C@@H](CCCCN)C(=O)N[C@@H](CCC(N)=O)C(=O)N[C@@H](CCCCN)C(=O)N[C@@H](CC(C)C)C(=O)N[C@@H](CCCCN)C(N)=O [SEQ ID NO 21, PVLDEFREKLNER7HLEALKQKLK] (Ac-PVLDEFREKLNE[dGly(6-heptenyl)]LEALKQKLK-NH2) was tested. Which EC50 [1] did it give?
**A.** 7200 nM

**Q.** C=CCCCCCC[C@H](NC(=O)[C@H](CCC(=O)O)NC(=O)[C@H](CC(N)=O)NC(=O)[C@H](CC(C)C)NC(=O)[C@H](CCCCN)NC(=O)[C@H](CCC(=O)O)NC(=O)[C@H](CCCN=C(N)N)NC(=O)[C@H](Cc1ccccc1)NC(=O)[C@H](CCC(=O)O)NC(=O)[C@H](CC(=O)O)NC(=O)[C@H](CC(C)C)NC(=O)[C@@H](NC(=O)[C@@H]1CCCN1C(C)=O)C(C)C)C(=O)N[C@@H](CC(C)C)C(=O)N[C@@H](CCC(=O)O)C(=O)N[C@@H](C)C(=O)N[C@@H](CC(C)C)C(=O)N[C@@H](CCCCN)C(=O)N[C@@H](CCC(N)=O)C(=O)N[C@@H](CCCCN)C(=O)N[C@@H](CC(C)C)C(=O)N[C@@H](CCCCN)C(N)=O [SEQ ID NO 32, PVLDEFREKLNES8HLEALKQKLK] (Ac-PVLDEFREKLNE[Gly(oct-7-en-1-yl)]LEALKQKLK-NH2) was tested. Which EC50 [1] did it give?
**A.** 600 nM

**Q.** With CCCCCCC[C@H](NC(=O)[C@H](CCC(=O)O)NC(=O)[C@H](CC(N)=O)NC(=O)[C@H](CC(C)C)NC(=O)[C@H](CCCCN)NC(=O)[C@H](CCC(=O)O)NC(=O)[C@H](CCCN=C(N)N)NC(=O)[C@H](Cc1ccccc1)NC(=O)[C@H](CCC(=O)O)NC(=O)[C@H](CC(=O)O)NC(=O)[C@H](CC(C)C)NC(=O)[C@@H](NC(=O)[C@@H]1CCCN1C(C)=O)C(C)C)C(=O)N[C@@H](CC(C)C)C(=O)N[C@@H](CCC(=O)O)C(=O)N[C@@H](C)C(=O)N[C@@H](CC(C)C)C(=O)N[C@@H](CCCCN)C(=O)N[C@@H](CCC(N)=O)C(=O)N[C@@H](CCCCN)C(=O)N[C@@H](CC(C)C)C(=O)N[C@@H](CCCCN)C(N)=O [SEQ ID NO 34, PVLDEFREKLNES7H3LEALKQKLK] (Ac-PVLDEFREKLNE[X6]LEALKQKLK-NH2) as the molecule, how does the EC50 [1] read?
**A.** 600 nM

**Q.** Which EC50 [1] does the source give for “Ac-PVLDEFREKLNE[Ala(5-hexenyl)]LEALKQKLKPVLDEFREKLNE[Ala(5-hexenyl)]LEALKQKLK-NH2 (C-terminus assumed) [SEQ ID NO 63]” here?
**A.** 41000 nM

**Q.** For CCCCCCCCCCCCC(NC(=O)[C@H](CCC(=O)O)NC(=O)[C@H](CC(=O)O)NC(=O)[C@H](CC(C)C)NC(=O)[C@@H](NC(=O)[C@@H]1CCCN1C(C)=O)C(C)C)C(=O)N[C@@H](CCCNC(=N)N)C(=O)N[C@@H](CCC(=O)O)C(=O)N[C@@H](CCCCN)C(=O)N[C@@H](CC(C)C)C(=O)N[C@@H](CC(N)=O)C(=O)N[C@@H](CCC(=O)O)C(=O)N[C@@H](CCC(=O)O)C(=O)N[C@@H](CC(C)C)C(=O)N[C@@H](CCC(=O)O)C(=O)N[C@@H](C)C(=O)N[C@@H](CC(C)C)C(=O)N[C@@H](CCCCN)C(=O)N[C@@H](CCC(N)=O)C(=O)N[C@@H](CCCCN)C(=O)N[C@@H](CC(C)C)C(=O)N[C@@H](CCCCN)C(N)=O (single isomer, unassigned) [SEQ ID NO 37, PVLDE-(RS)12H3-REKLNEELEALKQKLK], which EC50 [1] is on record?
**A.** 100 to 400 nM

**Q.** How did the EC50 [1] turn out when C=CCCCCC[C@H](NC(=O)[C@H](CCC(N)=O)NC(=O)[C@H](CCCCN)NC(=O)[C@H](CC(C)C)NC(=O)[C@H](C)NC(=O)[C@H](CCC(=O)O)NC(=O)[C@H](CC(C)C)NC(=O)[C@H](CCCCCC=C)NC(=O)[C@H](CCC(=O)O)NC(=O)[C@H](CC(N)=O)NC(=O)[C@H](CC(C)C)NC(=O)[C@H](CCCCN)NC(=O)[C@H](CCC(=O)O)NC(=O)[C@H](CCCN=C(N)N)NC(=O)[C@H](Cc1ccccc1)NC(=O)[C@H](CCC(=O)O)NC(=O)[C@H](CC(=O)O)NC(=O)[C@H](CC(C)C)NC(=O)[C@@H](NC(=O)[C@@H]1CCCN1C(C)=O)C(C)C)C(=O)N[C@@H](CC(C)C)C(=O)N[C@@H](CCCCN)C(N)=O [SEQ ID NO 44, PVLDEFREKLNES7HLEALKQS7HLK] (Ac-PVLDEFREKLNE[Ala(5-hexenyl)]LEALKQ[Ala(5-hexenyl)]LK-NH2) was run?
**A.** 600 nM
